According to PMC2911999 (Chemical biology & drug design, 2010):

Biological target: rhodopsin (Bos taurus, UniProt P02699)
Test: extra MII stabilization assay
Type: biochemical

Sequence of rhodopsin (P02699 whole entry): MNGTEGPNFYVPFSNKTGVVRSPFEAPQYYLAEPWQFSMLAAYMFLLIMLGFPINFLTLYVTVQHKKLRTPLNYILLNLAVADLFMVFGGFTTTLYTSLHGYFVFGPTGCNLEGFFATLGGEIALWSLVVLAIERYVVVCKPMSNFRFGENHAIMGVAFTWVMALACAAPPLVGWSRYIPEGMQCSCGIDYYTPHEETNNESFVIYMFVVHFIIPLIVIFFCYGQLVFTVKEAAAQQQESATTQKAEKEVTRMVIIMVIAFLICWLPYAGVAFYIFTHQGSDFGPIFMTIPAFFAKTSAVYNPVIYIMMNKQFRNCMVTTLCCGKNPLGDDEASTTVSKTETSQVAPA

Row | EC50 [mM] | Substance
1 | 16.3 ± 12.3 | RJC 01340 [compound 3]
2 | 3 ± 0.28 | KM 05703 [compound 4]
3 | 11.8 ± 6.7 | AW 00987 [compound 5]
